The target in one test is T1, GPR139 (GoA activation) (Homo sapiens, UniProt Q6DWJ6).
T1 construct: expressed in transfected cells; host or cells: HEK293A (transient, Lipofectamine 2000)
T1 sequence (Q6DWJ6 1-353): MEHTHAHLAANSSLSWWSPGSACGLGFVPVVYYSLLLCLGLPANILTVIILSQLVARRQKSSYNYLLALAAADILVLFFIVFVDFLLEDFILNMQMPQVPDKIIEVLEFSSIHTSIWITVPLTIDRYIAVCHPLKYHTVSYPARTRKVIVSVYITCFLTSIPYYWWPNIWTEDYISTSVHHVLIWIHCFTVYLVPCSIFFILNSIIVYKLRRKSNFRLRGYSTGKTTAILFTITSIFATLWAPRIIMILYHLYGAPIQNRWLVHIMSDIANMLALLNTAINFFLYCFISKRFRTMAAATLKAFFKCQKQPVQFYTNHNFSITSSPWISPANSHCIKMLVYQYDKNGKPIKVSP
The test is described as follows: BRET G protein activation (dissociation) assay, GoA, HEK293A. Format: cell-based. Particulars: for G protein activation, GoA: individual replicates. The procedure: (§1) Primary screening and pharmacological characterization of compounds were performed using a CHO-K1 cell line that stably expresses human GPR139 (GPR139-CHOk1). The GPR139-CHOk1 cell line was kindly provided by H. Lundbeck A/S, Denmark[24]. GPR139-CHOk1 cells were grown in Ham’s F-12 Kaighn’s Modification Medium (ThermoFisher #21127030) supplemented with 10% dialyzed fetal bovine serum (US origin, ThermoFisher #26400044), 100 units/mL Penicillin-Streptomycin (ThermoFisher #15140122), and 1 mg/mL Geneticin (ThermoFisher #11811031). […] M1R-CHOk1 cells were purchased from The Missouri S&T cDNA Resource Center (#CEM100TN00). M1R-CHOk1 cells were grown in Ham’s F12 Medium (ThermoFisher #21765029) supplemented with 10% fetal bovine serum (Brazilian origin, ThermoFisher #10270106), 100 units/mL Penicillin-Streptomycin, and 0.25 mg/mL Geneticin. HEK293A cells transiently transfected with GPR139 were used for additional pharmacological assessment of signaling pathways activated by GPR139. HEK239A cells were generously provided by Dr. Asuka Inoue, Tohoku University, Japan. HEK293A cells were grown in Dulbecco’s Modified Eagle Medium (ThermoFisher #31966047) supplemented with 10% dialyzed fetal bovine serum and 100 units/mL Penicillin-Streptomycin. Cell lines were maintained at 37 °C in humidified incubator equilibrated with 5% CO2.
(§2) The G protein dissociation assay developed by the lab of Kirill A. Martemyanov was used to measure the coupling of multiple G proteins by GPR139[57]. The assay was performed as described previously with minor modifications. HEK293A cells were reverse transfected 20–24 h prior to assay. 50,000 cells were plated in each well of white opaque tissue culture treated 96-well plates (PerkinElmer #6005680) previously coated with poly-D-lysine. Transfection solutions were prepared as described, and 10 µL transfection solution was mixed with 100 µL cells in each well. The cells in each well were transfected with 18.9 ng GPR139, 6.3 ng Venus 1-155 Gγ2, 6.3 ng Venus 159-239 Gβ1, 6.3 ng masGRK3ct-NanoLuc and 12.6 ng Gαi2, 12.6 ng Gαi3, 12.6 ng GαoA, 12.6 ng Gαq or 25.2 ng Gα12 using 375 nL Lipofectamine 2000 Transfection Reagent. Transfections with Gαq and Gα12 contained 6.3 ng DNA of the active subunit S1 of pertussis toxin (PTX-S1). Each transfection was normalized to 150 ng total DNA with pcDNA3.1. The BRET biosensors were a kind gift from the Martemyanov lab. On the day of the experiment the cells were washed with HEPES buffer. Test compounds were diluted in HEPES buffer from DMSO stocks (final DMSO concentration of maximally 0.3%). NanoLuc Luciferase substrate NanoGlo—furimazine (Promega #N1120) was diluted 1000-fold (final) in HEPES buffer. NanoGlo and test compounds were added, and measurements were performed after 10 s for Gi3, 15 s for Gi2 and GoA, 20 s for Gq, and 90 s for G12—the timepoint where maximal signal occurred with each G protein, ensuring proper determination of the potency for the G protein coupling. Simultaneous dual emission was measured at 535 nm and 475 nm on LUMIstar Omega Microplate Reader (BMG Labtech) at room temperature. The BRET ratio of 535 nm/475 nm (Venus/NanoLuc), reflecting the dissociation of the G protein heterotrimer, was used to determine the G protein activation. The basal BRET ratio obtained with buffer condition was subtracted from the absolute BRET ratio at a given test compound concentration, and the responses were normalized to the one obtained with 10 µM JNJ-63533054 for the activation of Gi2.
(§3) Pharmacological data and statistical analyses were performed in GraphPad Prism v9–10 (Graphpad Software Inc., San Diego, CA), which are also specifically described in the figure and table legends. […]
In general terms: Bioluminescence resonance energy transfer reports proximity on the nanometre scale.

The next test concerns the target T2, GPR139 (Gi3 activation) (Homo sapiens, UniProt Q6DWJ6).
T2 construct: expressed in transfected cells; host or cells: HEK293A (transient, Lipofectamine 2000)
T2 sequence (Q6DWJ6 1-353): T1 sequence (Q6DWJ6 1-353)
Nature of the test: BRET G protein activation (dissociation) assay, Gi3, HEK293A. Particulars: for G protein activation, Gi3: individual replicates. Type of test: cell-based. The procedure: as §1, §2, §3

[1] abbreviates: HEK293-A, normalized to JNJ-63533054 (JNJ(S)).

A word on the Emax: it is the maximal effect, on the per cent scale that the assay sets.

Molecules are shown by their SMILES. Values joined by “and” are separate entries in the source; they are usually repeats but may differ in a detail not shown here. Equal values may be shown once.

As to `Cc1cscc1-c1nc(CC(=O)N[C@H](C)c2ccccc2)no1` [1.1(R)], the results for the Emax at GPR139 (GoA activation) (setting [1]) and at GPR139 (Gi3 activation) (setting [1]) were 75 ± 3% and 37 ± 1%, respectively. Moreover, the EC50 on GPR139 (GoA activation) (Supplementary Table 6) was 794 nM; at GPR139 (Gi3 activation) (Supplementary Table 6, read-out: pEC50 Gi3 (converted)), 794 nM. For the same compound, the “G protein activation, GoA” value at GPR139 (GoA activation) (log [compound] M -4.5) is 74 % of JNJ-63533054 at Gi2 and 67 % of JNJ-63533054 at Gi2 and 78 % of JNJ-63533054 at Gi2; at GPR139 (GoA activation) (log [compound] M -5.0) it was 69 % of JNJ-63533054 at Gi2 and 63 % of JNJ-63533054 at Gi2 and 75 % of JNJ-63533054 at Gi2; at GPR139 (GoA activation) (log [compound] M -5.5) it was 62 % of JNJ-63533054 at Gi2 and 48 % of JNJ-63533054 at Gi2 and 61 % of JNJ-63533054 at Gi2; at GPR139 (GoA activation) (log [compound] M -6.0) it was 47 % of JNJ-63533054 at Gi2 and 34 % of JNJ-63533054 at Gi2 and 45 % of JNJ-63533054 at Gi2; at GPR139 (GoA activation) (log [compound] M -6.5), 19 % of JNJ-63533054 at Gi2 and 16 % of JNJ-63533054 at Gi2 and 26 % of JNJ-63533054 at Gi2; on GPR139 (GoA activation) (log [compound] M -7.0), 7.39 % of JNJ-63533054 at Gi2 and 4 % of JNJ-63533054 at Gi2 and 10 % of JNJ-63533054 at Gi2. In addition, the “G protein activation, GoA” value on GPR139 (GoA activation) (log [compound] M -7.5) was 0.895 % of JNJ-63533054 at Gi2 and 2 % of JNJ-63533054 at Gi2 and 3.63 % of JNJ-63533054 at Gi2; on GPR139 (GoA activation) (log [compound] M -8.0), -4.44 % of JNJ-63533054 at Gi2 and -2.19 % of JNJ-63533054 at Gi2 and 2.68 % of JNJ-63533054 at Gi2. Besides, the “G protein activation, Gi3” value is 39 % of JNJ-63533054 at Gi2 and 35 % of JNJ-63533054 at Gi2 and 34 % of JNJ-63533054 at Gi2 at GPR139 (Gi3 activation) (log [compound] M -4.5); 33 % of JNJ-63533054 at Gi2 and 34 % of JNJ-63533054 at Gi2 (2×) on GPR139 (Gi3 activation) (log [compound] M -5.0); 30 % of JNJ-63533054 at Gi2 (2×) and 24 % of JNJ-63533054 at Gi2 at GPR139 (Gi3 activation) (log [compound] M -5.5); 21 % of JNJ-63533054 at Gi2 and 22 % of JNJ-63533054 at Gi2 and 20 % of JNJ-63533054 at Gi2 at GPR139 (Gi3 activation) (log [compound] M -6.0); 11 % of JNJ-63533054 at Gi2 (2×) and 12 % of JNJ-63533054 at Gi2 at GPR139 (Gi3 activation) (log [compound] M -6.5); 1 % of JNJ-63533054 at Gi2 and 4.71 % of JNJ-63533054 at Gi2 and 3.32 % of JNJ-63533054 at Gi2 on GPR139 (Gi3 activation) (log [compound] M -7.0). The “G protein activation, Gi3” value was -0.169 % of JNJ-63533054 at Gi2 and 1.37 % of JNJ-63533054 at Gi2 and 5.42 % of JNJ-63533054 at Gi2 at GPR139 (Gi3 activation) (log [compound] M -7.5); -2.27 % of JNJ-63533054 at Gi2 and 2 % of JNJ-63533054 at Gi2 and 10 % of JNJ-63533054 at Gi2 on GPR139 (Gi3 activation) (log [compound] M -8.0).
